Source: ChEMBL document CHEMBL4145597, “BMS-986163, a Negative Allosteric Modulator of GluN2B with Potential Utility in Major Depressive Disorder” (ACS Med Chem Lett, 2018)
≈ marks a conversion by molar mass, not a printed value. Calls of active or inactive are those of the source. No cut-off for these calls is given here.

Experiments:
[1] = Aqueous solubility of the compound at pH 7.4; type: physicochemical; settings: aqueous medium
[2] = Stability of the compound at 50 degC up to 4 weeks using solid state compound; type: physicochemical; settings: 672 h
[3] = Stability of the compound in aqueous solution at 25 degC up to 90 days; type: physicochemical; settings: buffer, 2160 h
[4] = tested on: Rattus norvegicus; assay: Toxicity in rat assessed as clinical pathological observations at 10 to 100 mg/kg/day administered iv; type: organism-based; settings: in vivo
[5] = tested on: Rattus norvegicus; assay: Toxicity in rat assessed as histopathological observations at 10 to 100 mg/kg/day administered iv; type: organism-based; settings: in vivo
[6] = tested on: Rhesus monkey; assay: Toxicity in monkey at 3.6 to 36 mg/kg, iv administered as single dose; type: organism-based, Macaca mulatta; settings: in vivo
[7] = tested on: Rhesus monkey; assay: Cmax in monkey at 36 mg/kg, iv assessed as BMS-986169 level in plasma; type: ADME, organism-based, Macaca mulatta; parameters: dose 36 mg/kg, route intravenous; settings: in vivo
[8] = target: Glutamate receptor ionotropic, NMDA 2B (Homo sapiens, UniProt Q13224); assay: (§1) Negative allosteric modulation of human GluN2B receptor expressed in Xenopus laevis oocytes assessed as inhibition of glutamate/glycine-induced channel current after 15 to 20 mins by two electrode voltage clamp based electrophysiology assay; type: cell-based
[9] = target: Glutamate receptor ionotropic, NMDA 2A (Homo sapiens) (UniProt Q12879); assay: Negative allosteric modulation of human GluN2A receptor expressed in Xenopus laevis oocytes assessed as inhibition of glutamate/glycine-induced channel current at 3 uM after 10 to 15 mins by two electrode voltage clamp based electrophysiology assay; type: cell-based
[10] = target: Glutamate receptor ionotropic, NMDA 2C (Homo sapiens) (UniProt Q14957); assay: Negative allosteric modulation of human GluN2C receptor expressed in Xenopus laevis oocytes assessed as inhibition of glutamate/glycine-induced channel current at 3 uM after 10 to 15 mins by two electrode voltage clamp based electrophysiology assay; type: cell-based
[11] = target: Glutamate receptor ionotropic, NMDA 2D (Homo sapiens) (UniProt O15399); assay: Negative allosteric modulation of human GluN2D receptor expressed in Xenopus laevis oocytes assessed as inhibition of glutamate/glycine-induced channel current at 3 uM after 10 to 15 mins by two electrode voltage clamp based electrophysiology assay; type: cell-based
[12] = target: Glutamate receptor ionotropic, NMDA 2B (Rattus norvegicus, UniProt Q00960); assay: Displacement of [3H]Ro 25-6981 from GluN2B receptor in Sprague-Dawley rat forebrain membranes incubated for 1 hr by topcount micro scintillation counting method; parameters: species or system Membrane
[13] = target: Glutamate receptor ionotropic, NMDA 2B (Homo sapiens, UniProt Q05586+Q13224); assay: as §1; type: cell-based
[14] = tested on: Mus musculus; assay: Ex vivo receptor occupancy at GluN2B receptor in CD-1 mouse forebrain membranes assessed as reduction in [3H]Ro 25-6981 receptor labeling at 0.3 mg/kg, iv incubated for 5 mins by topcount micro scintillation counting method; type: functional
[15] = tested on: Mus musculus; assay: Ex vivo receptor occupancy at GluN2B receptor in CD-1 mouse forebrain membranes assessed as reduction in [3H]Ro 25-6981 receptor labeling at 1 mg/kg, iv incubated for 5 mins by topcount micro scintillation counting method; type: functional
[16] = Plasma concentration in CD-1 mouse at 0.3 mg/kg, iv; type: ADME, organism-based; settings: in vivo
[17] = Plasma concentration in CD-1 mouse at 1 mg/kg, iv; type: ADME, organism-based; settings: in vivo
[18] = tested on: Mus musculus; assay: Antidepressant activity in CD-1 mouse assessed as decrease in immobility time administered iv 15 mins prior to test measured for 6 mins observation by forced swim test; type: functional
[19] = tested on: Mus musculus; assay: Ex vivo receptor occupancy at GluN2B receptor in CD-1 mouse forebrain membranes assessed as reduction in [3H]Ro 25-6981 receptor labeling at 0.1 to 1 mg/kg, iv incubated for 5 mins by topcount micro scintillation counting method; type: functional
[20] = Plasma concentration in CD-1 mouse at 0.1 to 1 mg/kg, iv; type: ADME, organism-based; settings: in vivo
[21] = Fraction unbound in human plasma; type: ADME, cell-free
[22] = Fraction unbound in rat plasma; type: ADME, cell-free
[23] = Fraction unbound in mouse plasma; type: ADME, cell-free
[24] = Dissociation constant, pKa of the compound by spectrophotometric method; type: physicochemical
[25] = target: Voltage-gated inwardly rectifying potassium channel KCNH2 (Homo sapiens, UniProt Q12809); assay: Inhibition of human ERG expressed in HEK293 cells assessed as reduction in peak tail current after 2 to 5 mins by patch clamp based electrophysiology assay; type: cell-based
[26] = tested on: Mus musculus; assay: Ex vivo receptor occupancy at GluN2B receptor in CD-1 mouse forebrain membranes assessed as reduction in [3H]Ro 25-6981 receptor labeling administered iv incubated for 5 mins by topcount micro scintillation counting method; type: functional, organism-based; settings: Membrane
[27] = tested on: Mus musculus; assay: Ex vivo receptor occupancy at GluN2B receptor in CD-1 mouse forebrain membranes assessed as reduction in [3H]Ro 25-6981 receptor labeling at 3 mg/kg, iv incubated for 5 mins by topcount micro scintillation counting method; type: functional

Glutamate receptor ionotropic, NMDA 2B (Homo sapiens, UniProt Q13224), sequence (Q13224 27-1484 limits assumed): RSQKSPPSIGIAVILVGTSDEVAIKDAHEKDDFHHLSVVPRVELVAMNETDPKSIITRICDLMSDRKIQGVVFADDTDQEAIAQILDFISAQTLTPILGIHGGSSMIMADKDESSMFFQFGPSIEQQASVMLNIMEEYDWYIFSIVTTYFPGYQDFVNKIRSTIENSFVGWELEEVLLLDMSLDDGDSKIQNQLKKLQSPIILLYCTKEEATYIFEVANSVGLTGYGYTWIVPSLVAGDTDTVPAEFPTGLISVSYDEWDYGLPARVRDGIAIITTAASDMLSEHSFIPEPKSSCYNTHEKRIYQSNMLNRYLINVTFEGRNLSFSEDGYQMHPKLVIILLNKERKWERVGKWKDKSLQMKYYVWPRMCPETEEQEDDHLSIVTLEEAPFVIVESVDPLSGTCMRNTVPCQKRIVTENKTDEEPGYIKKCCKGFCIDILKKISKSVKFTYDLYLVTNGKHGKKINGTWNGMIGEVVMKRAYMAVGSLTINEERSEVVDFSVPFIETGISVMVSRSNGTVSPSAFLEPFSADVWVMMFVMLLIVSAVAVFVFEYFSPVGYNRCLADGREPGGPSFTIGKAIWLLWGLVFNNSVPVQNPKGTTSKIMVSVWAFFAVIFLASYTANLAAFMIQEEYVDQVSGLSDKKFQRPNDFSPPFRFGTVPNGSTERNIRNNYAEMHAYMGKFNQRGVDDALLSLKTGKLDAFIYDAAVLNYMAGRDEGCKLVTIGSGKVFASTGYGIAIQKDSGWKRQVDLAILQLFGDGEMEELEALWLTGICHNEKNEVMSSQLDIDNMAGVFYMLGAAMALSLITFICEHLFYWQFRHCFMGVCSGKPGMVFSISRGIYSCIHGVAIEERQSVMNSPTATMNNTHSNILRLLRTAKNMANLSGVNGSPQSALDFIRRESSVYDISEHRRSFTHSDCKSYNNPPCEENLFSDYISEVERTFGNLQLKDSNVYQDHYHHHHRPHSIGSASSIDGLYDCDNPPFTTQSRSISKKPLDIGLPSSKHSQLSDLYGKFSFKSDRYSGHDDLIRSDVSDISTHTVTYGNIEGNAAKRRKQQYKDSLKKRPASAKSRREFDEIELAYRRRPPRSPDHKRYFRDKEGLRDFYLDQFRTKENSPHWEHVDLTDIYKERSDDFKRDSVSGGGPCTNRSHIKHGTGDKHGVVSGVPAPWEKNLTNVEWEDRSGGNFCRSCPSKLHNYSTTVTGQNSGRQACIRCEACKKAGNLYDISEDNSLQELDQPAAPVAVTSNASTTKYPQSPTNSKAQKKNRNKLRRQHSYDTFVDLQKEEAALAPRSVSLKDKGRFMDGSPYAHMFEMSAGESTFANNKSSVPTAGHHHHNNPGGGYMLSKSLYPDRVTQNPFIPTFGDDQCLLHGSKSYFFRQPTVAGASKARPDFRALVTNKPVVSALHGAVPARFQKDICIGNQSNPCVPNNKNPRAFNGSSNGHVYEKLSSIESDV
Glutamate receptor ionotropic, NMDA 2D (Homo sapiens), sequence (O15399 whole entry): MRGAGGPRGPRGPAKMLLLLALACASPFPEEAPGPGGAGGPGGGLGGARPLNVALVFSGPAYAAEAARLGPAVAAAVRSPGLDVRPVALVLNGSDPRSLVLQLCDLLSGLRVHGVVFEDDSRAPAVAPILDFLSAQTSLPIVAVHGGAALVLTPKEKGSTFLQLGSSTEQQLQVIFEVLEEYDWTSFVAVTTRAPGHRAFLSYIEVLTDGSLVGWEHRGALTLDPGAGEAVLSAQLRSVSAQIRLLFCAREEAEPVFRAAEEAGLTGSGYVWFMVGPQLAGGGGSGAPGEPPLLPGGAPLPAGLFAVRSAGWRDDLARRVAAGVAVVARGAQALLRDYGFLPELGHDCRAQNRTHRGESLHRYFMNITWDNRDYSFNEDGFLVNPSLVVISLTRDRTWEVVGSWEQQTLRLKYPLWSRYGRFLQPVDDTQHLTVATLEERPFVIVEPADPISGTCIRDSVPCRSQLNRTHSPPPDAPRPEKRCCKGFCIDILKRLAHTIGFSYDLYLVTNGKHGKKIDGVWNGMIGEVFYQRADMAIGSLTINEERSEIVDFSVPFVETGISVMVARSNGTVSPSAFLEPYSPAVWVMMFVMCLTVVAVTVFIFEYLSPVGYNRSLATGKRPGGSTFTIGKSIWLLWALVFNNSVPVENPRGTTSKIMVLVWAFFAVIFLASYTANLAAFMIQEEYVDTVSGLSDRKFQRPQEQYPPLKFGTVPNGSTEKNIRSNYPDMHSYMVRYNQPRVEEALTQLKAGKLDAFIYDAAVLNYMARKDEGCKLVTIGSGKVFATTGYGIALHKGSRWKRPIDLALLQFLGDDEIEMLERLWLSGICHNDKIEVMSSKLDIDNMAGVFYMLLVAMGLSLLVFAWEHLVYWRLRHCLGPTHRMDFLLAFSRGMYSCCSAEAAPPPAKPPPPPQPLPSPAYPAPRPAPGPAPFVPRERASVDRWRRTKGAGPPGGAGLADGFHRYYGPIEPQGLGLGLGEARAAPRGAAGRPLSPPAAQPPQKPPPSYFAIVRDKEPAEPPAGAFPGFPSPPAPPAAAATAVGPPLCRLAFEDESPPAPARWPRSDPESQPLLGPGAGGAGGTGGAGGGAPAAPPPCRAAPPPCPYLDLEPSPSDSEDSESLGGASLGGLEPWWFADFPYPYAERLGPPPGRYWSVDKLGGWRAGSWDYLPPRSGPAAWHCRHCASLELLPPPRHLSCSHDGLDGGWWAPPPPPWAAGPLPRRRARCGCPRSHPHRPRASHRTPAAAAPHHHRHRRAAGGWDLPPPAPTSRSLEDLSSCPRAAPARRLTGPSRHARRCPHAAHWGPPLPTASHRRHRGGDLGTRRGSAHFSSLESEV
Glutamate receptor ionotropic, NMDA 2C (Homo sapiens), sequence (Q14957 whole entry): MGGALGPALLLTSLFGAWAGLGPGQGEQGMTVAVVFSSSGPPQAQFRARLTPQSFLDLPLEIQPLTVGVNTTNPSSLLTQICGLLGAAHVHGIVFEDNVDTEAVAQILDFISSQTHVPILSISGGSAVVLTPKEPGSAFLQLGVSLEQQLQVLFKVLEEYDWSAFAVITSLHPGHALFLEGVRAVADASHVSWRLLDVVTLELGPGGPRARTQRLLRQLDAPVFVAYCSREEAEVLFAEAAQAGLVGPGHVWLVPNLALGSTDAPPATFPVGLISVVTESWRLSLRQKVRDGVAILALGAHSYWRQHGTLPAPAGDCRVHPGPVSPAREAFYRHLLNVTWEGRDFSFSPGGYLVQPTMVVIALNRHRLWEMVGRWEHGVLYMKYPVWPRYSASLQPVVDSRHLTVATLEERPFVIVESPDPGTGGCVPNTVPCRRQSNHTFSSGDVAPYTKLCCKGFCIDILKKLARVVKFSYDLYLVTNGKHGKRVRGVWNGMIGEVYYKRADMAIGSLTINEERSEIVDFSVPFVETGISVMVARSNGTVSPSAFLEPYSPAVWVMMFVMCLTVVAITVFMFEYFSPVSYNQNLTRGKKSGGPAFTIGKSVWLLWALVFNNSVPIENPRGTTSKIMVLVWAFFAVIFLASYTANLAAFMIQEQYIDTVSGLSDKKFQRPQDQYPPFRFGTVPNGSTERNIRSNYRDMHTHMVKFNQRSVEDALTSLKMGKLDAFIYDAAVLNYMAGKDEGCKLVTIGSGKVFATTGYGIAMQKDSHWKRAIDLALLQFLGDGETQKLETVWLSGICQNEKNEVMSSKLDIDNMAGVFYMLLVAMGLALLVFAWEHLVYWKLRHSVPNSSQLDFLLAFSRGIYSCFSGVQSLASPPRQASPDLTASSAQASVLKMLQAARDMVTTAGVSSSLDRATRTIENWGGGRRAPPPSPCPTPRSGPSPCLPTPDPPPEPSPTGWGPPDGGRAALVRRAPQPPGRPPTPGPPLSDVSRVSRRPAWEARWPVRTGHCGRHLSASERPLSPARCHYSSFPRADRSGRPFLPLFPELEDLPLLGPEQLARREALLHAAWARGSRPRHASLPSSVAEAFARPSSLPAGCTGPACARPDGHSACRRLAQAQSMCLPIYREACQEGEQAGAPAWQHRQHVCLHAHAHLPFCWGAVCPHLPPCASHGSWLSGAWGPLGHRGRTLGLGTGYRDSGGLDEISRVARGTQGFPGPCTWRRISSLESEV

With `Cc1ccc(CN2CC[C@@H](N3CC[C@@H](c4ccc(OP(=O)(O)O)cc4)[C@H](F)C3)C2=O)cc1` the solubility [1] was 19.9 mg/mL (≈ 43 mM), the Stability [2] was “Stable” and the Stability [3] was “Stable”. The Activity [4] was “Non-Toxic”, the Activity [5] was “Non-Toxic” and the Activity [6] was “Non-Toxic”. For the same compound, the Cmax [7] was 19000 nM.
For `O=C1NCC[C@H]1N1CC[C@@H](c2ccc(O)cc2)[C@H](F)C1`, the inhibition [8] was “inactive”, the inhibition [9] was “inactive” and the inhibition [10] was “inactive”. The inhibition [11] was “inactive”.
For `O=C1[C@H](N2CCC(c3ccc(O)cc3)CC2)CCN1Cc1ccc(F)cc1`, the Ki [12] was 1.4 nM, the IC50 [13] was 4.2 nM and the Occ [14] was 60%. The Occ [15] was 95%, the concentration [16] was 70 nM and the concentration [17] was 340 nM. The Activity [18] was “Dose-dependent effect”, the minimal effective dose ([18]; CD-1, iv, read-out: MED) was 0.56 mg/kg and the Occ [19] was 75%. The concentration [20] was 150 nM, the fraction unbound [21] was 0.1 and the fraction unbound [22] was 0.11. The fraction unbound [23] was 0.12, the pKa [24] was 6.8 and the IC50 [25] was 620 nM. The Activity [26] was “Dose-dependent effect”.
In the case of `O=C(O)c1ccc(CN2CC[C@@H](N3CC[C@@H](c4ccc(O)cc4)[C@H](F)C3)C2=O)cc1`, the inhibition [8] is reported as “inactive”, the inhibition [9] is reported as “inactive” and the inhibition [10] is reported as “inactive”. The inhibition [11] was “inactive”.
For `Cc1ccc(CN2CC[C@@H](N3CC[C@H](c4ccc(O)cc4)[C@@H](F)C3)C2=O)cc1`, the concentration [20] was 710 nM, the IC50 [25] was over 30000 nM and the Occ [27] was 87%.
